These are literature values, as cited in the CATMoS acute toxicity set (Mansouri et al. 2021).

The data set in a line: rat acute oral toxicity. Particulars: in vivo. The source says: […]The data set underlying the modeling effort for this project was initially compiled by NICEATM and U.S. EPA’s CCTE. Briefly, LD50 data were collected from rat acute oral systemic toxicity tests, including limit tests, ranges/confidence intervals, and discrete LD50 values. The full data set included 21,200 LD50 entries for 15,688 substances. […] Data were reviewed to ensure that LD50 values with obvious errors in the extracted data such as unit conversion errors (e.g., comma and decimal separator misplacements) were either fixed or removed. After this review, 16,209 LD50 values remained. Many of the chemicals represented had multiple LD50 entries, requiring that a single representative value per Chemical Abstracts Service Registry Number (CASRN) identifier be defined to facilitate modeling efforts. Based on ATWG feedback and to define the representative LD50 as a protective value while accounting for the distribution across multiple LD50s, the median of the lowest quartile was computed using only discrete LD50 values (omitting limit test data and range and confidence interval data). A detailed summary of the data compilation is available online on the NICEATM webpage dedicated to the collaborative modeling project (NTP 2020).
[…][…] For categorical designations, limit test and range/confidence interval LD50 data were integrated wherever possible. As such, the number of chemicals with end point values/calls varies across the modeling end points (Table 3) based on whether chemicals had representative LD50 values and/or other data. If a chemical had both, the representative value was used to determine categorical calls rather than limit test data. Some data were useable only for certain end points and categories depending on the thresholds. For example, ranges that spanned multiple hazard categories were considered only for the binary (very toxic/nontoxic) end points and omitted from rendering a determination for hazard category assignment.
[…]The final data set comprising 11,992 chemicals was split into training and evaluation sets […], respectively. This process was performed semirandomly by ordering chemicals based on the five end points (categorical and continuous LD50 values) and partitioning every fourth record into the evaluation set accordingly. This approach was taken to ensure an equivalent distribution of the LD50 values and the different hazard categories between the training and the evaluation sets without supervised sampling of the chemicals based on structures (Figure 1A). The sources of the chemical structures were also kept equivalent between the two sets, with chemical structures obtained from DSSTox, being the highest quality, representing over 75% of each set (Figure 1B).
One may read the LD50 as the dose at which mortality reaches 50%. As for `CN(CO)C(=S)S`, the LD50 was 590 mg/kg.
As to `NS(=O)(=O)c1cc(-c2nnn[nH]2)c(NCc2cccs2)cc1Cl`, the LD50 was 2540 mg/kg.
In the case of `N#Cc1ccccc1C#N`, the LD50 was 30 mg/kg.
In the case of `CCCCCOC(CBr)c1ccc(C(C)C)cc1` (stereo not drawn), the LD50 is 250 mg/kg.
For the compound `CCCN(CCCCOC(=O)c1ccc(OC)c(OC)c1)C1CCc2cc(OC)ccc2C1` (stereo not drawn), the LD50 was 707 mg/kg.
`CCCCCCCCCCCCCCCC[N+](C)(C)CC(=O)[O-]`: the LD50 was 1620 mg/kg.
Turning to `COP(=S)(OC)SCc1ccc(SP(=S)(OC)OC)cc1`, the LD50 was 265 mg/kg.
With `Nc1nc2ccc(Br)cc2o1`, the LD50 was 500 mg/kg.
As for `C=CC(=O)NC(C)(C)CS(=O)(=O)O`, the LD50 was 16000 mg/kg.
With `Cn1c2c(c3ccccc31)CCN(CCCN1CCN(c3ccccc3)CC1)C2=O`, the LD50 was 650 mg/kg.
On to `CCS(=O)Cc1ccccc1OC(=O)NC` (stereo not drawn), for which the LD50 is 150 mg/kg.
Regarding `O=S(=O)(CCCl)COCS(=O)(=O)CCCl`, the LD50 was 168 mg/kg.
For `COc1ccc([N+](=O)[O-])cc1Cl`, the LD50 is 1180 mg/kg.
With `O=C(NC(O)C(Cl)(Cl)Cl)NC(O)C(Cl)(Cl)Cl` (stereo not drawn), the LD50 was 6400 mg/kg.
For `O=P(OCCCl)(OCCCl)OCC(CO)(CO)COP(=O)(OCCCl)OCCCl`, the LD50 was 4920 mg/kg.
On to `CCN=C1SC(=NOC(=O)NC)C(C)(C)S1`, for which the LD50 was 6.3 mg/kg.
As for `NCCOCNc1ccccc1`, the LD50 is 0.625 mg/kg.
As to `CCCCCC(C)(O)CC` (stereo not drawn), the LD50 was 3400 mg/kg.
With `CCCCCCOC(C)=O`, the LD50 was 42000 mg/kg.
On to `CN1C(C(=O)Nc2ccccn2)=C(OC(=O)C23CC4CC(CC(C4)C2)C3)c2sc(Cl)cc2S1(=O)=O`, for which the LD50 was 100 mg/kg.
As for `Cc1cccc(N2CCN(CC=Cc3ccc4c(c3)CCC(=O)N4Cc3ccccc3)CC2)c1`, the LD50 is 500 mg/kg.
As for `C1CNCCN1`, the LD50 is 4900 mg/kg.
Consider `CC(=Cc1ccccc1)CC(=O)N1CCOCC1`, for which the LD50 is 1000 mg/kg.
Take `C[Si](Cl)(Cl)Cl`: the LD50 was 800 mg/kg.
For `FC(F)(F)c1nc2c(Br)cc(Br)c(Br)c2[nH]1`, the LD50 was 12.8 mg/kg.
Take `CC1N(c2ccccc2)C(=O)c2ccccc2N1C(=O)CN1CCOCC1` (stereo not drawn): the LD50 was 1710 mg/kg.
Regarding `O=c1[nH]c2cc(Cl)c(Br)cc2o1`, the median lethal dose (LD50) is 500 mg/kg.
As to `C/C=C1/C[C@@H](C)[C@](O)(CO)C(=O)OCC2=CCN3CC[C@@H](OC1=O)[C@@H]23`, the LD50 is 34 mg/kg.
With `CCCCOCC(O)COc1ccccc1` (stereo not drawn), the LD50 was 2370 mg/kg.
Take `N#CC(=Cc1ccc(Cl)cc1Cl)C(=O)O`: the LD50 is 50 mg/kg.
In the case of `CCOP(=O)(O)Sc1ccc(C)cc1`, the LD50 is 50 mg/kg.
`C=CCSP(=O)(NC(=O)CC)OC` (stereo not drawn): the LD50 was 125 mg/kg.
As to `O=c1[nH]c2cc(Br)ccc2o1`, the LD50 is 1050 mg/kg.
As for `O=C(O)CCCO`, the LD50 is 9690 mg/kg.
On to `O=C(O)CCCNS(=O)(=O)c1cccc(C(F)(F)F)c1`, for which the LD50 is 13000 mg/kg.
On to `CN(C)N=Nc1ccc([N+](=O)[O-])cc1`, for which the LD50 was 1660 mg/kg.
Take `CCOP(=S)(OCC)Oc1nc(Cl)n(C(C)C)n1`: the LD50 was 27 mg/kg.
On to `Clc1ccc(C(OCCN2CCCCC2)c2ccccc2)cc1` (stereo not drawn), for which the LD50 was 1990 mg/kg.
Turning to `COc1ccc2c(c1)CCCC2=O`, the LD50 is 300 mg/kg.
For `Cn1c(=O)c2c(ncn2CC(=O)O)n(C)c1=O`, the LD50 was 900 mg/kg.
Turning to `CCOc1cc2c(cc1OCC)C1CC(=O)C(CCC#N)CN1CC2` (stereo not drawn), the LD50 is 780 mg/kg.
As for `O=C(O)c1ccccc1Nc1cc(Cl)ccc1C(=O)O`, the LD50 is 1150 mg/kg.
Take `COC(=O)C(C)Oc1ccc(Oc2ncc(C(F)(F)F)cc2Cl)cc1` (stereo not drawn): the LD50 is 393 mg/kg.
On to `FC(F)(F)c1nc2c(Br)cc(Br)cc2[nH]1`, for which the LD50 was 5.98 mg/kg.
Consider `O=C(OCCOC(=O)C(Cl)(Cl)Cl)C(Cl)(Cl)Cl`, for which the 50% lethal dose (LD50) is 7000 mg/kg.
On to `CCOP(=S)(OCC)OC(C)=CC(=O)OC`, for which the LD50 is 0.14 mg/kg.
On to `CCOC(=O)CN=C=O`, for which the LD50 is 1130 mg/kg.
As to `CC(CO)CCO` (stereo not drawn), the LD50 was 5460 mg/kg.
Turning to `CC=Cc1ccc(OP(=S)(OC)OC)c(OC)c1`, the median lethal dose (LD50) was 250 mg/kg.
`O=C(Nc1ccc(O)cc1)c1ccccc1O`: the median lethal dose (LD50) is 6700 mg/kg.
Turning to `CC1OC1C1CCC2(C)OC2C1` (stereo not drawn), the LD50 was 5630 mg/kg.
Turning to `Nc1ccc(Oc2ccc(C(c3ccc(Oc4ccc(N)cc4)cc3)(C(F)(F)F)C(F)(F)F)cc2)cc1`, the LD50 is 1340 mg/kg.
`O=[N+]([O-])c1cccc(C(F)(F)F)c1`: the LD50 is 610 mg/kg.
As for `OCCN1CCN(CCC=C2c3ccccc3Sc3ccc(Cl)cc32)CC1`, the LD50 was 660 mg/kg.
As for `NCCCCCCCCCCC(=O)O`, the LD50 is 14700 mg/kg.
For `Fc1cc(Br)c2nc(C(F)(F)F)[nH]c2c1`, the LD50 was 5.65 mg/kg.
Consider `CCCCOCCC(=O)O`, for which the LD50 was 5190 mg/kg.
As for `N#CCCOCCOCCO`, the LD50 was 13400 mg/kg.
In the case of `CC1(C)[C@H]2CC[C@](C)(O)[C@@H]1C2`, the LD50 is 2050 mg/kg.
For `CCSc1nc(=O)n(CC(C)(C)C)c(=O)n1N`, the LD50 is 3500 mg/kg.
For `O=C1CCCCCCCC(=O)OCCO1`, the LD50 is 9200 mg/kg.
Consider `O=C1CCC2CCCCC2O1` (stereo not drawn), for which the LD50 was 3900 mg/kg.
With `CC(C)(C)C(O)C(=Cc1ccc(Cl)cc1Cl)n1cncn1` (stereo not drawn), the LD50 was 474 mg/kg.
On to `CCOC(=O)[C@H](CCc1ccccc1)N[C@@H](C)C(=O)N1C(=O)N(C)C[C@H]1C(=O)O`, for which the LD50 is 3540 mg/kg.
As for `Cl[C@H]1[C@H](Cl)[C@@H](Cl)[C@H](Cl)[C@H](Cl)[C@H]1Cl` (racemic), the LD50 was 177 mg/kg.
Regarding `O=C1OCc2c(Cl)c(Cl)c(Cl)c(Cl)c21`, the LD50 was 20000 mg/kg.
As to `CCO[Si](C)(C)c1ccccc1`, the LD50 was 2460 mg/kg.
For `CCSCCSP(=S)(OC)OC`, the LD50 was 40 mg/kg.
As for `CC1(C)S[C@@H]2[C@H](NC(=O)C(C(=O)Oc3ccc4c(c3)CCC4)c3ccccc3)C(=O)N2[C@H]1C(=O)O` (stereo partly drawn), the LD50 is 4450 mg/kg.
As for `COP(=S)(OC)Oc1ccc(S(C)(=O)=O)c(C)c1`, the LD50 is 125 mg/kg.
Turning to `CC(=O)Nc1ccc(OCC(O)CNC(C)C)cc1` (stereo not drawn), the LD50 was 3460 mg/kg.
For `Clc1cc2c(c(Cl)c1Cl)Oc1c(Cl)c(Cl)c(Cl)c(Cl)c1O2`, the LD50 is 6.33 mg/kg.
As for `CCc1ccc([N+]([O-])=Cc2ccccc2)cc1`, the LD50 was 1340 mg/kg.
In the case of `CCC(C)c1ccc(O)cc1` (stereo not drawn), the LD50 is 2450 mg/kg.
`CCCCCCCCCC(=O)OC1(c2ccc(Cl)cc2)CCN(CCCC(=O)c2ccc(F)cc2)CC1`: the LD50 is 1720 mg/kg.
As to `Nc1cc([N+](=O)[O-])ccc1Cl`, the LD50 is 2020 mg/kg.
In the case of `CC(=O)Oc1c(C)ncc2c1COC(C(C)C)OC2` (stereo not drawn), the LD50 was 2850 mg/kg.
With `Brc1cnc[nH]1`, the LD50 was 250 mg/kg.
Regarding `CCOCC(Cl)C(OCC)OCC` (stereo not drawn), the LD50 was 1320 mg/kg.
As to `CCCC1(c2cccc(O)c2)CCN(C)C1` (stereo not drawn), the LD50 was 231 mg/kg.
For `CCS(=O)(=O)CCO`, the LD50 was 18000 mg/kg.
Regarding `CCCCCCCCCCCCCCCCCC(=O)Cl`, the LD50 is 7500 mg/kg.
Take `ClCCOCOCCCl`: the LD50 was 65 mg/kg.
Regarding `CC(C)CC(C)CC(O)CC(C)C` (stereo not drawn), the LD50 was 17000 mg/kg.
For `CCCCC(CC)CCC(CCC(CC)CC)OS(=O)(=O)O` (stereo not drawn), the LD50 was 1430 mg/kg.
Regarding `O=C(O)C(F)(F)C(F)(F)F`, the 50% lethal dose (LD50) was 1770 mg/kg.
For the compound `CCOP(=S)(OCC)Oc1ccc2c3c(c(=O)oc2c1)CCCC3`, the LD50 was 67 mg/kg.
`Nc1ccc(S(=O)(=O)O)cc1`: the LD50 is 5380 mg/kg.
In the case of `CNc1snc2ccccc12`, the LD50 was 400 mg/kg.
With `C=CCc1c(O)c(CN2CCN(CCO)CC2)cc2c(C)cc(=O)oc12`, the LD50 is 3160 mg/kg.
With `O=S1(=O)CC=CC1`, the LD50 is 2550 mg/kg.
For the compound `C=CC(=O)NCOCCCC`, the 50% lethal dose (LD50) is 1030 mg/kg.
`Cc1ccccc1N=Nc1c(N)ccc2ccccc12`: the LD50 is 120 mg/kg.
`CCC(C)c1cc(OC(=O)NC)ccc1C` (stereo not drawn): the LD50 was 35 mg/kg.
`C=CC(=O)N1CN(C(=O)C=C)CN(C(=O)C=C)C1`: the LD50 was 350 mg/kg.
On to `CCc1cnc(C(=O)O)c(C(=O)O)c1`, for which the LD50 is 3350 mg/kg.
In the case of `OCCNCCc1ccccc1`, the LD50 is 1870 mg/kg.
Regarding `CN(CCn1cnc2c1c(=O)n(C)c(=O)n2C)c1ccccc1`, the LD50 is 2880 mg/kg.
For the compound `CCCCC(CC)COCCCN` (stereo not drawn), the LD50 was 320 mg/kg.
Consider `COc1cc(S(C)=O)ccc1-c1nc2ccncc2[nH]1` (stereo not drawn), for which the LD50 is 132 mg/kg.
Turning to `O=C(NO)Nc1ccc(Cl)c(Cl)c1`, the LD50 is 1850 mg/kg.
In the case of `Cc1cc(C)c(C2=C(OC(=O)OC(C)C)c3ccccc3C2=O)c(C)c1`, the LD50 is 707 mg/kg.
For the compound `Nc1cc(Cl)c([N+](=O)[O-])cc1Cl`, the LD50 was 2820 mg/kg.
For `OCC(O)Oc1ccc(Cl)cc1Cl` (stereo not drawn), the LD50 was 1070 mg/kg.
For `CCCCOC(=O)COc1ccc(Cl)cc1C`, the median lethal dose (LD50) was 914 mg/kg.
As for `OC(CBr)C(O)C(O)C(O)CBr` (stereo not drawn), the LD50 was 1000 mg/kg.
As to `CN(Sc1ccccc1)C(=O)Oc1cccc2c1OC(C)(C)C2`, the LD50 was 25 mg/kg.
Consider `CCCCCCCCCCCC(=O)NP(=O)(OC)SC` (stereo not drawn), for which the LD50 is 100 mg/kg.
